Substitutions are numbered along the chain they refer to. Peptide text beside a SMILES is read from it. * marks the point of attachment. Bz = O=C(c1ccccc1)*
Key:
Sth1BD = target: T1, Sth1BD (Saccharomyces cerevisiae, UniProt P32597); assay: ITC binding of H3 peptides to Sth1 bromodomain
T1 construct: Sth1BD (residues 1248-1359); 6*His-Sumo (N, cleaved yes); made in house; host or cells: Escherichia coli Rosetta
T1 sequence (P32597 1248-1359): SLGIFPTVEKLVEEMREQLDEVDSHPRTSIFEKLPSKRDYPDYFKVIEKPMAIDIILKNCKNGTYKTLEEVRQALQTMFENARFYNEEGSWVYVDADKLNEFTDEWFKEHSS
Protocol: (§1) ITC titrations were performed using a MicroCal ITC200 system (GE Healthcare, USA) at 20 °C. For ITC measurement, peptides and proteins were dialyzed into the same buffer (25 mM Tris-HCl, pH 8.0, 150 mM NaCl). […] For reader-related ITC experiments, peptides at 2.0 mM in the syringe were titrated into Taf14YEATS/Sas5YEATS/Sth1BD at 0.1–0.2 mM in the sample cell. Each titration consisted of 20 successive injections. The titration curves were processed using the Origin 7.0 software program (OriginLab) according to the one-binding-site fitting model. Each titration was repeated twice, and one representative plot was shown in the paper. The dissociation constants (Kd), enthalpy changes (ΔH), and fitting errors were derived from one representative ITC plot.

Sth1BD A1329C = target: T2, Sth1BD A1329C (Saccharomyces cerevisiae, UniProt P32597, A1329C); assay: ITC binding of H3K14bz peptide to Sth1BD A1329C mutant
T2 construct: Sth1BD (residues 1248-1359); 6*His-Sumo (N, cleaved yes); made in house; host or cells: Escherichia coli Rosetta
T2 sequence (P32597 1248-1359 A1329C): T1 sequence (P32597 1248-1359) with A82C
Protocol: as §1

Gcn5-Ada2 = assay: DTNB acylation activity assay of Gcn5-Ada2; assay type: biochemical, Saccharomyces cerevisiae; conditions: 250 μM H3 1-18 peptide, pH 7.8, 30 °C
Protocol: Kinetic measurements comparing rates of acetylation and benzoylation were performed using the 5,5′-dithiobis-(2-bitrobenzoic acid) (DTNB, D218200-1G, Sigma) assay. Reactions contained 2 μM Gcn5-Ada2, 250 μM H3 peptide amino acids 1-18 ([…]), 100 mM HEPES pH7.8, 50 mM NaCl and 500 μM acetyl-CoA or benzoyl-CoA. Each reaction was incubated for 5 min at 30 °C before adding acyl-CoA to start the reaction. The reaction was quenched at the indicated time points by adding two volumes of freshly prepared quenching buffer (3.2 M guanidine-HCl, 100 mM sodium phosphate pH 6.8). The samples were added to one volume of 4 mM DTNB dissolved in 100 mM sodium phosphate (pH 6.8) and transferred to a 384-well polystyrene clear-bottom plate (CORNING, 3680), and the absorbance at 412 nm was measured in a Bio-TEK plate reader. Absorbances were converted to concentrations using a standard curve generated by HSCOA standards. The acetylation reaction was quenched after 0.5, 1.0, 1.5, 2.0, and 2.5 min, and the benzoylation reaction was quenched after 1, 2, 3, and 4 h. All acylation rates were corrected by subtracting the rate of acyl-CoA consumption by Gcn5-Ada2 in the absence of peptide. The acetylation assays were performed in triplicate, but the benzoylation assay was not repeated due to the limitation of materials.

Sas5YEATS = target: T3, Sas5YEATS (Saccharomyces cerevisiae, UniProt Q99314); assay: ITC binding of H3 peptides to Sas5YEATS
T3 construct: 6*His-Sumo (N, cleaved yes); made in house; host or cells: Escherichia coli Rosetta
T3 sequence (Q99314 2-139): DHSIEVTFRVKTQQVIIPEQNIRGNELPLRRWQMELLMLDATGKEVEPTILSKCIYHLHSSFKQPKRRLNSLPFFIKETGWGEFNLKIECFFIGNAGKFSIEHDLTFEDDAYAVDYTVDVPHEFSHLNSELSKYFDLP

BY4742 cells = assay: Western blot of histone Kbz and Kac levels in yeast treated with sodium benzoate; assay type: cell-based, Saccharomyces cerevisiae; conditions: BY4742 cells in YPD at log phase, sodium benzoate added for 6 h, histones extracted; pan anti-Kbz and anti-Kac
Text: Anti-Kbz (PTM Biolabs Inc., PTM-762, 1:1000, Lot^# 1314381619I926), anti-Kac (Cell signal, 9441 S, 1:1000, Lot^# 14), anti-H3N (Active motif, 39763, 1:700, Lot^# 20418023), anti-H4 (Active motif, 61521, 1:3000, Lot^# 31416005), and anti-tubulin (Sigma, T6199, 1:3000, Lot^# 048M4751V) antibodies were used in this study. The HRP secondary antibody and the fluorescent secondary antibodies were used: Peroxidase AffiniPure Goat Anti-Mouse IgG (Jackson ImmunoResearch, 1:5000, 115-035-003), Peroxidase AffiniPure Goat Anti-Rabbit IgG (Jackson ImmunoResearch, 1:5000, 111-035-003), IRDye 800CW goat anti-rabbit IgG (LI-COR P/N 923-32211, 1:5000, Lot^# D00304-15) and IRDye 680RD goat anti-Mouse IgG (LI-COR P/N 926-68070, 1:10000, Lot^# D01014-04). The fluorescent western blots were detected on Odyssey CLx (LI-COR) and quantified by Image Studio (ver. 5.2.5).
Typically, 100 mg yeast cell pellets were harvested and suspended in 1 ml buffer A (1 M sorbitol, 50 mM Tris-HCl, pH 7.5, 5 mM MgCl2, 5 mM 2-mercaptoethanol) and centrifuged for 5 min at 900 g. Then, the pellet was resuspended in 1 ml buffer A with 60 μl zymolyase. […] The concentration of histones was measured by a BCA Protein Assay Kit (TIANGEN, PA115-01, China). The samples were analyzed by western blot or by mass spectrometry.

Work on `CC(C)C[C@H](NC(=O)[C@H](CCC(N)=O)NC(=O)[C@H](CCCCN)NC(=O)[C@H](CCCNC(=N)N)NC(=O)[C@@H]1CCCN1C(=O)[C@H](C)NC(=O)[C@H](CCCCNC(=O)c1ccccc1)NC(=O)CNC(=O)CNC(=O)[C@@H](NC(=O)[C@H](CO)NC(=O)[C@H](CCCCN)NC(=O)[C@H](CCCNC(=N)N)NC(=O)[C@H](C)NC(=O)[C@@H](N)[C@@H](C)O)[C@@H](C)O)C(=O)N[C@@H](C)C(=O)N[C@@H](CO)C(=O)N[C@@H](Cc1ccc(O)cc1)C(=O)O` [H3K14bz] (H-TARKSTGGK(Bz)APRKQLASY-OH) yielded a Kd (Sth1BD) of 88.5 ± 12.4 µM and a Kd (Sth1BD A1329C) of 187 ± 29.8 µM.

Work on `CC(=O)SCCNC(=O)CCNC(=O)[C@H](O)C(C)(C)COP(=O)(O)OP(=O)(O)OC[C@H]1O[C@@H](n2cnc3c(N)ncnc32)[C@H](O)[C@@H]1OP(=O)(O)O` [acetyl-CoA] yielded an acetylation rate (Gcn5-Ada2; 2 μM Gcn5-Ada2, 500 μM acetyl-CoA, n = 3) of 10.35 µM/min.

`CC(C)(COP(=O)(O)OP(=O)(O)OC[C@H]1O[C@@H](n2cnc3c(N)ncnc32)[C@H](O)[C@@H]1OP(=O)(O)O)[C@@H](O)C(=O)NCCC(=O)NCCSC(=O)c1ccccc1` [benzoyl-CoA] gave a benzoylation rate (Gcn5-Ada2; 2 μM Gcn5-Ada2, 500 μM benzoyl-CoA, single experiment) of 1.19 µM/h.

Molecule `CC(C)C[C@H](NC(=O)[C@H](CCC(N)=O)NC(=O)[C@@H](N)CCCCN)C(=O)N[C@@H](C)C(=O)N[C@@H](CO)C(=O)N[C@@H](CCCCN)C(=O)N[C@@H](C)C(=O)N[C@@H](C)C(=O)N[C@@H](CCCNC(=N)N)C(=O)N[C@@H](CCCCNC(=O)c1ccccc1)C(=O)N[C@@H](CO)C(=O)N[C@@H](C)C(=O)N1CCC[C@H]1C(=O)N[C@@H](CO)C(=O)N[C@H](C(=O)NCC(=O)NCC(=O)N[C@H](C(=O)N[C@@H](CCCCN)C(=O)N[C@@H](Cc1ccc(O)cc1)C(=O)O)C(C)C)[C@@H](C)O` [H3K27bz] (H-KQLASKAARK(Bz)SAPSTGGVKY-OH) has a Kd (Sth1BD) of 386 µM and a Kd (Sas5YEATS) of 92.6 ± 5.63 µM.

With `O=C([O-])c1ccccc1.[Na+]` [sodium benzoate] the “effect on histone Kbz and Kac signals (western blot)” value (BY4742 cells) was “significantly enhanced the Kbz and Kac signals on yeast histones in a dose-dependent manner”.

Source: publication PMC8927147, “Global profiling of regulatory elements in the histone benzoylation pathway” (Nature Communications, 2022)
